Reference: paper PMC12154555, “Beyond natural flavonoids: exploring bioisosterism in design and synthesis of influenza endonuclease inhibitors” (RSC Medicinal Chemistry, 2025)
Read-outs that look alike come from different tables or passages of the source.

Assays:
[1] = system: influenza A (A/California/07/2009 (H1N1)); assay: Cytopathic effect reduction assay in MDCK cells; format: cell-based; conditions: for EC50: read-out: EC50 antiviral testing MDCK
[2] = system: influenza A (A/California/07/2009 (H1N1)); assay: Cytopathic effect reduction assay in A549 cells; format: cell-based; conditions: for EC50: read-out: EC50 antiviral testing A549
[3] = Cytotoxicity assay (XTT), HEK 293T cells; format: cell-based; conditions: human
Procedure: HEK 293T, A549 and MDCK cells were seeded at 3 × 10^3 cells per well in 100 μL DMEM complete medium. The following day, compounds were added to the corresponding wells, and the cells were incubated for 48 hours at 37 °C in 5% CO2. After incubation, cell viability was analyzed by XTT colorimetric assay. Then, 50 μL of a 50 : 1 mixture of XTT labelling reagent (1 mg mL^−1) and PMS electron-coupling reagent (0.383 mg mL^−1) were added to the wells and incubated for 4 hours at 37 °C in 5% CO2. The formation of orange formazan dye was measured on a Tecan Spark plate reader (Tecan Life Sciences, USA). The experiments were performed in biological triplicates, and the resulting data were analyzed using GraphPad Prism 10.0 software (GraphPad Software, San Diego, CA, USA). […]
incubating serial dilutions of each tested compound and control compounds with the selected cell cultures. HEK 293T cells were seeded at 3x10^3 cells per well in 100 μl of DMEM complete medium. The following day the tested compounds were added to the corresponding well and the cells were incubated for 48 hours at 37 °C in 5% CO 2. After incubation, cell viability was analysed by XTT colorimetric assay. 50 μl of 50:1 mixture of XTT labelling reagent (1 mg/mL) and PMS electron-coupling reagent (0.383 mg/mL) were added to the wells and incubated for 4 hours at 37 °C in 5% CO2. The formation of orange formazan dye was measured on a Tecan Spark plate reader (Tecan Life Sciences, USA). The experiments were performed in biological triplicates, and the resulting data were analyzed using GraphPad Prism 10.0 software (GraphPad Software, San Diego, […]

[4] = Cytotoxicity assay (XTT), A549 cells; format: cell-based, human; conditions: human
Procedure: (§1) HEK 293T, A549 and MDCK cells were seeded at 3 × 10^3 cells per well in 100 μL DMEM complete medium. The following day, compounds were added to the corresponding wells, and the cells were incubated for 48 hours at 37 °C in 5% CO2. After incubation, cell viability was analyzed by XTT colorimetric assay. Then, 50 μL of a 50 : 1 mixture of XTT labelling reagent (1 mg mL^−1) and PMS electron-coupling reagent (0.383 mg mL^−1) were added to the wells and incubated for 4 hours at 37 °C in 5% CO2. The formation of orange formazan dye was measured on a Tecan Spark plate reader (Tecan Life Sciences, USA). The experiments were performed in biological triplicates, and the resulting data were analyzed using GraphPad Prism 10.0 software (GraphPad Software, San Diego, CA, USA).

[5] = Cytotoxicity assay (XTT), MDCK cells; format: cell-based, canine; conditions: dog
Procedure: as §1

A549 cells = assay: Cytotoxicity assay (XTT), A549 cells; format: cell-based, human
Procedure: as §1

MDCK cells = assay: Cytotoxicity assay (XTT), MDCK cells; format: cell-based, canine
Procedure: as §1

influenza A polymerase [6] = biological target: T1, influenza A polymerase (Influenza A virus, UniProt P15659); assay: cell-based; format: cell-based, influenza A/WSN/33 H1N1; conditions: for EC50: read-out: EC50 minireplicon HEK 293T
influenza A polymerase [7] = biological target: T1, influenza A polymerase; assay: cell-based; design: species or system influenza A/WSN/33 H1N1; conditions: read-out: EC50 minireplicon A549
[8] = Influenza A virus, H1N1, MDCK, 72 h
[9] = Influenza A virus, H1N1, A549, 96 h

SMILES	EC50 [1, 8] [µM]	EC50 [2, 9] [µM]	CC50 at 48 h [3] [µM]	CC50 at 48 h [4] [µM]	CC50 at 48 h [5] [µM]	EC50 antiviral testing MDCK [1]	EC50 [1] [µM]	EC50 antiviral testing A549 [2]	EC50 [2] [µM]	CC50 (A549 cells) [µM]	CC50 cytotoxicity A549 (A549 cells)	CC50 (MDCK cells) [µM]	CC50 cytotoxicity MDCK (MDCK cells)	EC50 (influenza A polymerase [6]) [µM]	EC50 (influenza A polymerase [7]) [µM]	EC50 minireplicon HEK 293T (influenza A polymerase [6])	CC50 at 48 h ([3]; HEK 293T cells, 48 hours, XTT, read-out: CC50 cytotoxicity HEK 293T) [µM]	CC50 at 48 h ([4]; A549 cells, 48 hours, XTT, read-out: CC50 cytotoxicity A549) [µM]	CC50 at 48 h ([5]; MDCK cells, 48 hours, XTT, read-out: CC50 cytotoxicity MDCK) [µM]
COC(=O)OCOc1c2n(ccc1=O)N([C@@H]1c3ccccc3SCc3c1ccc(F)c3F)[C@@H]1COCCN1C2=O [BMX, baloxavir marboxil, reference compound]	0.03 ± 0.008	1.8 ± 0.4	> 50	> 50	> 50														
O=C1c2c(O)c(=O)ccn2N([C@@H]2c3ccccc3SCc3c2ccc(F)c3F)[C@@H]2COCCN12 [BXA, baloxavir acid, reference compound]						[…]	[…]	[…]	[…]	14 ± 3	moderate cytotoxicity	5 ± 1	moderate cytotoxicity						
Oc1cc(O)c2c(O)cc(-c3ccc(O)c(O)c3)cc2c1 [Compound 24, 6-(3,4-Dihydroxyphenyl)naphthalene-1,3,8-triol]	> 100	12 ± 1	> 50	> 50	> 50									1.1 ± 0.1	0.8 ± 0.2				
O=c1cc(-c2cc(O)c3c(O)cc(O)cc3c2)[nH]cc1O [Compound 33, 5-Hydroxy-2-(4,5,7-trihydroxynaphthalen-2-yl)pyridin-4(1H)-one]	41 ± 13	2.4 ± 0.4	> 50	> 50	> 50									2.1 ± 0.2	2.8 ± 0.6				
O=c1[nH]c(-c2cc(O)c3c(O)cc(O)cc3c2)cnc1O [Compound 34, 3-Hydroxy-6-(4,5,7-trihydroxynaphthalen-2-yl)pyrazin-2(1H)-one]	> 100	> 100	> 50	> 50	> 50									1.8 ± 0.1	1.7 ± 0.4				
O=c1[nH]c(-c2cc(O)c3c(O)cc(O)cc3c2)ncc1O [Compound 36, 5-Hydroxy-2-(4,5,7-trihydroxynaphthalen-2-yl)pyrimidin-4(3H)-one]	> 100	10 ± 1	> 50	> 50	> 50									1.4 ± 0.2	1.8 ± 0.5				
O=c1cc(-c2ccc(O)c(O)c2)oc2cc(O)cc(O)c12 [Luteolin, luteolin, reference compound]	> 100	20 ± 2												> 100	9.2 ± 4.1	did not show any inhibition	> 50	> 50	> 50
